# Target: CXCR3 (Macaca fascicularis, UniProt A0A2K5UV19)
# Experiment: functional cellular assay measuring calcium flux in CXCR3 transfected cells (block of CXCR3/IP-10 interaction)
# Format: cell-based
# Conditions: IP-10 induced intracellular calcium flux; Cyno-CHO cells stably expressing recombinant CXCR3 and G-alpha-16
# In short: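 Cyno-CHO cells stably co-expressing recombinant CXCR3 and G-alpha-16, loaded with Ca-4 dye (HBSS, 10 mM HEPES pH 7.4, 2 mM probenecid) for 1 h at 37 °C. Compound (10 microM final) preincubated 15 min at room temperature, then IP-10 added at EC80. Intracellular calcium flux read by fluorescence (ex 480/em 540 nm).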
# Chain of CXCR3 (A0A2K5UV19 entry or part of it): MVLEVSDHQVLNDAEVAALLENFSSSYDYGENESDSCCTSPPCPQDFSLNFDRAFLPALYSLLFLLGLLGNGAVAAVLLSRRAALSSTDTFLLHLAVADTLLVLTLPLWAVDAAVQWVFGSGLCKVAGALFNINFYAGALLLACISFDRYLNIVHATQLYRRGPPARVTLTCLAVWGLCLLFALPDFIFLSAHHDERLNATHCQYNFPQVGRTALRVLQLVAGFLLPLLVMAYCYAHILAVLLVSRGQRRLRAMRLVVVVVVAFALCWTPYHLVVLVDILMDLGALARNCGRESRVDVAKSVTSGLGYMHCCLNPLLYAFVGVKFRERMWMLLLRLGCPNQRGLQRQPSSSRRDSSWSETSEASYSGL
row,Structure (SMILES),IC50
1,O=C(NCC(=O)N1CCN(c2ccccc2C(=O)Nc2cccnc2)CC1)c1ccc(OC(F)F)cc1 [4-Difluormethoxy-N-(2-oxo-2-{4-[2-(pyridin-3-ylcarbamoyl)-phenyl]-piperazin-1-yl}-ethyl)-benzamide],18.3 nM
2,COc1ccc(C(=O)NCC(=O)N2CCN(c3ccccc3C(=O)Nc3cccnc3)CC2)cc1C [4-Methoxy-3-methyl-N-(2-oxo-2-{4-[2-(pyridin-3-ylcarbamoyl)-phenyl]-piperazin-1-yl}-ethyl)-benzamide],11 nM
3,COc1ccc(C(=O)NCC(=O)N2CCN(c3ccccc3C(=O)Nc3cccnc3)CC2)cc1 [4-Methoxy-N-(2-oxo-2-{4-[2-(pyridin-3-ylcarbamoyl)-phenyl]-piperazin-1-yl}-ethyl)-benzamide],16 nM
4,COc1ccc(C(=O)NCC(=O)N2CCN(c3ccccc3C(=O)Nc3ccncc3)CC2)cc1 [4-Methoxy-N-(2-oxo-2-{4-[2-(pyridin-4-ylcarbamoyl)-phenyl]-piperazin-1-yl}-ethyl)-benzamide],3.4 nM
5,COc1ccc(C(=O)N(C)CC(=O)N2CCN(c3ccccc3C(=O)Nc3ccncc3)CC2)cc1 [4-Methoxy-N-methyl-N-(2-oxo-2-{4-[2-(pyridin-4-ylcarbamoyl)-phenyl]-piperazin-1-yl}-ethyl)-benzamide],15 nM
6,"Cc1cc(C)n(CC(=O)N2CCN(c3ccccc3NC(=O)c3cncc(Br)c3)CC2)n1 [5-Bromo-N-(2-{4-[2-(3,5-dimethyl-pyrazol-1-yl)-acetyl]-piperazin-1-yl}-phenyl)-nicotinamide]",5.7 nM
7,CS(=O)(=O)c1ccc(NC(=O)c2ccccc2N2CCN(C(=O)Cn3c(C(=O)O)cc4cc(Cl)ccc43)CC2)cc1 [5-Chloro-1-(2-{4-[2-(4-methanesulfonyl-phenylcarbamoyl)-phenyl]-piperazin-1-yl}-2-oxo-ethyl)-1-H-indole-2-carboxylic acid],25 nM
8,"Cc1cc(C)n(CC(=O)N2CCN(c3ccc(Cl)cc3C(=O)Nc3nc4c(s3)CN(C)CC4)CC2)n1 [5-Chloro-2-{4-[2-(3,5-dimethyl-pyrazol-1-yl)-acetyl]-piperazin-1-yl}-N-(5-methyl-4,5,6,7-tetrahydro-thiazolo[5,4-c]pyridin-2-yl)-benzamide]",15 nM
9,COc1cc(NC(=O)c2cc(F)ccc2N2CCN(C(=O)CN3CCCCC3=O)CC2)ccn1 [5-Fluoro-N-(2-methoxy-pyridin-4-yl)-2-{4-[2-(2-oxo-piperidin-1-yl)-acetyl]-piperazin-1-yl}-benzamide],9 nM
10,"CN1CCc2nc(NC(=O)c3cc(F)ccc3N3CCN(C(=O)CN4Cc5ccccc5C4=O)CC3)sc2C1 [5-Fluoro-N-(5-methyl-4,5,6,7-tetrahydro-thiazolo[5,4-c]pyridin-2-yl)-2-{4-[2-(1-oxo-1,3-dihydro-isoindol-2-yl)-acetyl]-piperazin-1-yl}-benzamide]",8.1 nM
11,COc1cc(NC(=O)c2ccccc2N2CCN(C(=O)CN(C)C(=O)c3ncoc3C)CC2)ccn1 [5-Methyl-oxazole-4-carboxylic acid (2-{4-[2-(2-methoxy-pyridin-4-ylcarbamoyl)-phenyl]-piperazin-1-yl}-2-oxo-ethyl)-methyl-amide],5.5 nM
12,"Cc1cc(C)n(CC(=O)N2CCN(c3ccccc3NC(=O)c3ccc(Cl)nc3)CC2)n1 [6-Chloro-N-(2-{4-[2-(3,5-dimethyl-pyrazol-1-yl)-acetyl]-piperazin-1-yl}-phenyl)-nicotinamide]",15 nM
13,"O=C(NCC(=O)N1CCN(c2ccccc2C(=O)Nc2cccnc2)CC1)c1ccc2c(c1)OCO2 [Benzo[1,3]dioxole-5-carboxylic acid (2-oxo-2-{4-[2-(pyridin-3-ylcarbamoyl)-phenyl]-piperazin-1-yl}-ethyl)-amide]",13.3 nM
14,"Cc1cc(C)n(CC(=O)N2CCN(c3ccccc3C(=O)Nc3cnc4c(c3)c(C)nn4C)CC2)n1 [N-(1,3-Dimethyl-1H-pyrazolo[3,4-b]pyridin-5-yl)-2-{4-[2-(3,5-dimethyl-pyrazol-1-yl)-acetyl]-piperazin-1-yl}-benzamide]",8.7 nM
15,"Cc1cc(C)n(CC(=O)N2CCN(c3ccccc3C(=O)Nc3cnc4c(c3)c(=O)n(C)c(=O)n4C)CC2)n1 [N-(1,3-Dimethyl-2,4-dioxo-1,2,3,4-tetrahydro-pyrido[2,3-d]pyrimidin-6-yl)-2-{4-[2-(3,5-dimethyl-pyrazol-1-yl)-acetyl]-piperazin-1-yl}-benzamide]",11.5 nM
16,"Cc1cc(C)n(CC(=O)N2CCN(c3ccccc3C(=O)Nc3ccnc(Br)c3)CC2)n1 [N-(2-Bromo-pyridin-4-yl)-2-{4-[2-(3,5-dimethyl-pyrazol-1-yl)-acetyl]-piperazin-1-yl}-benzamide]",4.1 nM
17,"Cc1cc(C)n(CC(=O)N2CCN(c3ccccc3C(=O)Nc3ccnc(Cl)c3)CC2)n1 [N-(2-Chloro-pyridin-4-yl)-2-{4-[2-(3,5-dimethyl-pyrazol-1-yl)-acetyl]-piperazin-1-yl}-benzamide]",7.2 nM
18,"COc1cc(NC(=O)c2ccccc2N2CCN(C(=O)CN3Cc4ccccc4C3=O)CC2)ccn1 [N-(2-Methoxy-pyridin-4-yl)-2-{4-[2-(1-oxo-1,3-dihydro-isoindol-2-yl)-acetyl]-piperazin-1-yl}-benzamide]",3.4 nM

row,Structure (SMILES),IC50
1,COc1cc(NC(=O)c2ccccc2N2CCN(C(=O)CN3CCCCC3=O)CC2)ccn1 [N-(2-Methoxy-pyridin-4-yl)-2-{4-[2-(2-oxo-piperidin-1-yl)-acetyl]-piperazin-1-yl}-benzamide],4.4 nM
2,COc1cc(NC(=O)c2ccccc2N2CCN(C(=O)CN3CCCCC3=O)[C@@H](C)C2)ccn1 [N-(2-Methoxy-pyridin-4-yl)-2-{(S)-3-methyl-4-[2-(2-oxo-piperidin-1-yl)-acetyl]-piperazin-1-yl}-benzamide],13 nM
3,"Cc1cc(C)n(CC(=O)N2CCN(c3ccccc3C(=O)Nc3ccnc(C(C)(C)C)c3)CC2)n1 [N-(2-tert-Butyl-pyridin-4-yl)-2-{4-[2-(3,5-dimethyl-pyrazol-1-yl)-acetyl]-piperazin-1-yl}-benzamide]",8.5 nM
4,"Cc1cc(C)n(CC(=O)N2CCN(c3ccccc3NC(=O)c3cccc(C(F)(F)F)c3)CC2)n1 [N-(2-{4-[2-(3,5-Dimethyl-pyrazol-1-yl)-acetyl]-piperazin-1-yl}-phenyl)-3-trifluoromethyl-benzamide]",7.4 nM
5,"Cc1cc(C)n(CC(=O)N2CCN(c3ccccc3NC(=O)c3ccc(Oc4ccccc4)nc3)CC2)n1 [N-(2-{4-[2-(3,5-Dimethyl-pyrazol-1-yl)-acetyl]-piperazin-1-yl}-phenyl)-6-phenoxy-nicotinamide]",9.1 nM
6,"Cc1cc(C)n(CC(=O)N2CCN(c3ccccc3NC(=O)c3ccccc3)CC2)n1 [N-(2-{4-[2-(3,5-Dimethyl-pyrazol-1-yl)-acetyl]-piperazin-1-yl}-phenyl)-benzamide]",6.6 nM
7,"Cc1cc(C)n(CC(=O)N2CCN(c3ccccc3NC(=O)c3ccncc3)CC2)n1 [N-(2-{4-[2-(3,5-Dimethyl-pyrazol-1-yl)-acetyl]-piperazin-1-yl}-phenyl)-isonicotinamide]",7.6 nM
8,"Cc1cc(C)n(CC(=O)N2CCN(c3ccccc3NC(=O)c3cccnc3)CC2)n1 [N-(2-{4-[2-(3,5-Dimethyl-pyrazol-1-yl)-acetyl]-piperazin-1-yl}-phenyl)-nicotinamide]",15 nM
9,"COc1ccc(C(=O)NCC(=O)N2CCN(c3ncc(Cl)cc3NC(=O)c3cccc(C(F)(F)F)c3)CC2)cc1OC [N-(2-{4-[5-Chloro-3-(3-trifluoromethyl-benzoylamino)-pyridin-2-yl]-piperazin-1-yl}-2-oxo-ethyl)-3,4-dimethoxy-benzamide]",8.8 nM
10,"Cc1cc(C)n(CC(=O)N2CCN(c3ccccc3C(=O)Nc3cccc(Cl)c3)CC2)n1 [N-(3-Chloro-phenyl)-2-{4-[2-(3,5-dimethyl-pyrazol-1-yl)-acetyl]-piperazin-1-yl}-benzamide]",3.3 nM
11,"Cc1cc(C)n(CC(=O)N2CCN(c3ccccc3C(=O)Nc3cccc(C#N)c3)CC2)n1 [N-(3-Cyano-phenyl)-2-{4-[2-(3,5-dimethyl-pyrazol-1-yl)-acetyl]-piperazin-1-yl}-benzamide]",4.5 nM
12,"Cc1cc(C)n(CC(=O)N2CCN(c3ccccc3C(=O)Nc3cc(C4CCCCC4)no3)CC2)n1 [N-(3-Cyclohexyl-isoxazol-5-yl)-2-{4-[2-(3,5-dimethyl-pyrazol-1-yl)-acetyl]-piperazin-1-yl}-benzamide]",8.3 nM
13,"Cc1cc(C)n(CC(=O)N2CCN(c3ccccc3C(=O)Nc3cc(C(C)(C)C)ns3)CC2)n1 [N-(3-tert-Butyl-isothiazol-5-yl)-2-{4-[2-(3,5-dimethyl-pyrazol-1-yl)-acetyl]-piperazin-1-yl}-benzamide]",10 nM
14,"Cc1cc(C)n(CC(=O)N2CCN(c3ccccc3C(=O)Nc3cc(C(C)(C)C)no3)CC2)n1 [N-(3-tert-Butyl-isoxazol-5-yl)-2-{4-[2-(3,5-dimethyl-pyrazol-1-yl)-acetyl]-piperazin-1-yl}-benzamide]",8.9 nM
15,"Cc1cc(C)n(CC(=O)N2CCN(c3ccccc3C(=O)Nc3nc4c(Cl)cccc4s3)CC2)n1 [N-(4-Chloro-benzothiazol-2-yl)-2-{4-[2-(3,5-dimethyl-pyrazol-1-yl)-acetyl]-piperazin-1-yl}-benzamide]",13 nM
16,"CS(=O)(=O)c1ccc(NC(=O)c2ccccc2N2CCN(C(=O)Cn3ccc4cccnc43)CC2)cc1 [N-(4-Methanesulfonyl-phenyl)-2-[4-(2-pyrrolo[2,3-b]pyridin-1-yl-acetyl)-piperazin-1-yl]-benzamide]",7.4 nM
17,"Cc1cc(C)n(CC(=O)N2CCN(c3ccccc3C(=O)Nc3nc(C(C)(C)C)c(C#N)s3)CC2)n1 [N-(4-tert-Butyl-5-cyano-thiazol-2-yl)-2-{4-[2-(3,5-dimethyl-pyrazol-1-yl)-acetyl]-piperazin-1-yl}-benzamide]",18.5 nM
18,"Cc1cc(C)n(CC(=O)N2CCN(c3ccccc3C(=O)Nc3nc(C(C)(C)C)cs3)CC2)n1 [N-(4-tert-Butyl-thiazol-2-yl)-2-{4-[2-(3,5-dimethyl-pyrazol-1-yl)-acetyl]-piperazin-1-yl}-benzamide]",15 nM

# — US8362249B2, “CXCR3 receptor antagonists” (Boehringer Ingelheim International GmbH, priority 2009, dated 2013)
